Reference: ChEMBL document CHEMBL1134418, “Synthesis of tetrocarcin derivatives with specific inhibitory activity towards Bcl-2 functions” (2001)
Converted amounts (≈) assume the structure as drawn.

What was measured:
Bacillus subtilis = experiment: Antibacterial activity was evaluated against Bacillus subtilis; format: functional
[1] = target: Apoptosis regulator Bcl-2 (Homo sapiens) (UniProt P10415); experiment: Effect on DEVD cleavage by DEVDase assay with anti-Fas antibody treatment using Bcl-2 overexpressing HeLa cells; 3 fold activation concentration (AC3); format: functional, cell-based
[2] = target: Apoptosis regulator Bcl-2 (Homo sapiens) (UniProt P10415); experiment: Effect on DEVD cleavage by DEVDase assay without anti-Fas antibody using Bcl-2 overexpressing HeLa cells; 3 fold activation concentration (AC3); format: functional, cell-based
HeLa [3] = experiment: Evaluated for HeLa cell viability with anti-Fas antibody treatment by XTT assay; 3 fold activation concentration (AC3); format: functional, Homo sapiens
HeLa [4] = experiment: Evaluated for HeLa cell viability without anti-Fas antibody treatment by XTT assay; 3 fold activation concentration (AC3); format: functional, Homo sapiens

Apoptosis regulator Bcl-2 (Homo sapiens), sequence (P10415 whole entry): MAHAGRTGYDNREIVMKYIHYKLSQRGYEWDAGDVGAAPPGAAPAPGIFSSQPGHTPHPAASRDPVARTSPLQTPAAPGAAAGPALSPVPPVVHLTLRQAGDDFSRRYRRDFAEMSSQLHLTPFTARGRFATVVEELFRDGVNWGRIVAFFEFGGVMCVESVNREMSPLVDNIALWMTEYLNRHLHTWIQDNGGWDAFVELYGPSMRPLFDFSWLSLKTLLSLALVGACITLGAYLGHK

Row | SMILES | MIC (Bacillus subtilis) [µg/mL] | AC3 [1] [µM] | AC3 [2] [µM] | AC3 (HeLa [3]) [µM] | AC3 (HeLa [4]) [µM]
1 | COC(=O)NC1[C@H](C)O[C@@H](O[C@H]2C/C=C(\C)[C@@H]3C=C[C@@H]4[C@@H](O[C@@H]5CC(OC(C)=O)C(OC(C)=O)[C@H](C)O5)[C@@H](C)C[C@H](C)[C@H]4[C@]3(C)/C(O)=C3\C(=O)O[C@]4(CC(C=O)=C[C@H](OC(C)=O)[C@H]4/C=C\2C)C3=O)CC1(C)[N+](=O)[O-] (stereo not given in full) | 16.7 (≈ 16.1 µM) | 2.1 | > 10 | 1.1 | >10
2 | COC(=O)NC1[C@H](C)O[C@@H](O[C@H]2C/C=C(\C)[C@@H]3C=C[C@@H]4[C@@H](O[C@H]5CCCCO5)[C@@H](C)C[C@H](C)[C@H]4[C@]3(C)/C(O)=C3\C(=O)O[C@]4(CC(C=O)=C[C@H](OC(C)=O)[C@H]4/C=C\2C)C3=O)CC1(C)[N+](=O)[O-] (stereo not given in full) | 6.3 (≈ 6.93 µM) | 3.9 | 4.9 | 3.9 | 4.8
3 | COC(=O)NC1[C@H](C)O[C@@H](O[C@H]2C/C=C(\C)[C@@H]3C=C[C@@H]4[C@@H](OC5C[C@H](O[C@@H]6CCC(OC7C[C@H](O)[C@@H](OC8CC[C@@H](O)C(C)O8)C(C)O7)[C@H](C)O6)[C@@H](OC(C)=O)C(C)O5)[C@@H](C)C[C@H](C)[C@H]4[C@]3(C)C(=O)C3=C(OC)[C@@]4(CC(C=O)=CC(O)[C@H]4/C=C\2C)OC3=O)CC1(C)[N+](=O)[O-] (stereo not given in full) | 5.2 (≈ 3.92 µM) | 1 | 2.5 | 0.8 | 1.5
4 | COC(=O)NC1[C@H](C)O[C@@H](O[C@H]2C/C=C(\C)[C@@H]3C=C[C@@H]4[C@@H](OC5C=C[C@H](O)[C@H](C)O5)[C@@H](C)C[C@H](C)[C@H]4[C@]3(C)/C(O)=C3\C(=O)O[C@]4(CC(C=O)=C[C@H](OC(C)=O)[C@H]4/C=C\2C)C3=O)CC1(C)[N+](=O)[O-] (stereo not given in full) | > 50 | 3.6 | > 10 | 3.7 | >10
5 | COC(=O)NC1[C@H](C)O[C@@H](O[C@H]2C/C=C(\C)[C@@H]3C=C[C@@H]4[C@@H](O[Si](C)(C)C(C)(C)C)[C@@H](C)C[C@H](C)[C@H]4[C@]3(C)/C(O)=C3\C(=O)O[C@]4(CC(C=O)=C[C@H](O)[C@H]4/C=C\2C)C3=O)CC1(C)[N+](=O)[O-] (stereo not given in full) | > 50 | 1.3 | 1.8 | 2 | 2
6 | COC(=O)NC1[C@H](C)O[C@@H](O[C@H]2C/C=C(\C)[C@@H]3C=C[C@@H]4[C@@H](O)[C@@H](C)C[C@H](C)[C@H]4[C@]3(C)/C(O)=C3\C(=O)O[C@]4(CC(C=O)=C[C@H](O[Si](C)(C)C(C)(C)C)[C@H]4/C=C\2C)C3=O)CC1(C)[N+](=O)[O-] (stereo not given in full) | > 50 | > 10 | > 10 | >10 | >10
7 | COCCOCCOCC(=O)O[C@@H]1[C@H]2C=C[C@H]3/C(C)=C/C[C@H](O[C@H]4CC(C)([N+](=O)[O-])C(NC(=O)OC)[C@H](C)O4)/C(C)=C\[C@@H]4[C@@H](O[Si](C)(C)C(C)(C)C)C=C(C=O)C[C@]45OC(O)=C(C(=O)[C@@]3(C)[C@@H]2[C@@H](C)C[C@@H]1C)C5=O (stereo not given in full) | > 50 | 9.5 | > 10 | 3.9 | 6.4
8 | COC(=O)NC1[C@H](C)O[C@@H](O[C@H]2C/C=C(\C)[C@@H]3C=C[C@@H]4[C@@H](OC5(C)O[C@@H]6OC(COC(C)=O)[C@@H](OC(C)=O)C(OC(C)=O)[C@@H]6O5)[C@@H](C)C[C@H](C)[C@H]4[C@]3(C)/C(O)=C3\C(=O)O[C@]4(CC(C=O)=C[C@H](OC(C)=O)[C@H]4/C=C\2C)C3=O)CC1(C)[N+](=O)[O-] (stereo not given in full) | > 50 | 5.7 | > 10 | 1.8 | >10
9 | CC[Si](CC)(CC)OO[C@H]1C=CC(O[C@@H]2[C@H]3C=C[C@H]4/C(C)=C/C[C@H](O[C@H]5CC(C)([N+](=O)[O-])C(NC(=O)OC)[C@H](C)O5)/C(C)=C\[C@@H]5[C@@H](OC(C)=O)C=C(C=O)C[C@]56OC(O)=C(C(=O)[C@@]4(C)[C@@H]3[C@@H](C)C[C@@H]2C)C6=O)O[C@H]1C (stereo not given in full) | > 50 | 4.9 | > 10 | 4.3 | >10

The next lines start with results.

Row | MIC (Bacillus subtilis) [µg/mL] | AC3 [1] [µM] | AC3 [2] [µM] | SMILES | AC3 (HeLa [3]) [µM] | AC3 (HeLa [4]) [µM]
10 | > 50 | > 10 | > 10 | COCCOCCOCC(=O)O[C@@H]1[C@H]2C=C[C@H]3/C(C)=C/C[C@H](O[C@H]4CC(C)([N+](=O)[O-])C(NC(=O)OC)[C@H](C)O4)/C(C)=C\[C@@H]4[C@@H](O)C=C(C=O)C[C@]45OC(O)=C(C(=O)[C@@]3(C)[C@@H]2[C@@H](C)C[C@@H]1C)C5=O (stereo not given in full) | >10 | >10
11 | > 50 | > 10 | > 10 | COC(=O)NC1[C@H](C)O[C@@H](O[C@H]2C/C=C(\C)[C@@H]3C=C[C@@H]4[C@@H](O)[C@@H](C)C[C@H](C)[C@H]4[C@]3(C)/C(O)=C3\C(=O)O[C@]4(CC(C=O)=C[C@H](O)[C@H]4/C=C\2C)C3=O)CC1(C)[N+](=O)[O-] (stereo not given in full) | >10 | >10
12 | > 50 | > 10 | > 10 | COC(=O)NC1[C@H](C)O[C@@H](O[C@H]2C/C=C(\C)[C@@H]3C=C[C@@H]4[C@@H](O[Si](C)(C)C(C)(C)C)[C@@H](C)C[C@H](C)[C@H]4[C@]3(C)/C(O)=C3\C(=O)O[C@]4(CC(C=O)=C[C@H](O[Si](C)(C)C(C)(C)C)[C@H]4/C=C\2C)C3=O)CC1(C)[N+](=O)[O-] (stereo not given in full) | >10 | >10
13 | < 0.049 | 2.2 | 7.7 | COC(=O)NC1[C@H](C)O[C@@H](O[C@H]2C/C=C(\C)[C@@H]3C=C[C@@H]4[C@@H](OC5C[C@H](O[C@@H]6CCC(OC7C[C@H](O)[C@@H](OC8CC[C@@H](O)C(C)O8)C(C)O7)[C@H](C)O6)[C@@H](OC(C)=O)C(C)O5)[C@@H](C)C[C@H](C)[C@H]4[C@]3(C)/C(O)=C3\C(=O)O[C@]4(CC(C=O)=CC(O)[C@H]4/C=C\2C)C3=O)CC1(C)[N+](=O)[O-] (stereo not given in full) | 1.4 | 4
14 | > 50 | 3.8 | 4.8 | COC(=O)NC1[C@H](C)O[C@@H](O[C@H]2C/C=C(\C)[C@@H]3C=C[C@@H]4[C@@H](OCc5ccc(OC)cc5)[C@@H](C)C[C@H](C)[C@H]4[C@]3(C)/C(O)=C3\C(=O)O[C@]4(CC(C=O)=C[C@H](OC(C)=O)[C@H]4/C=C\2C)C3=O)CC1(C)[N+](=O)[O-] (stereo not given in full) | 7.6 | 5.8
15 | > 50 | 8.4 | > 10 | COC(=O)NC1[C@H](C)O[C@@H](O[C@H]2C/C=C(\C)[C@@H]3C=C[C@@H]4[C@@H](O)[C@@H](C)C[C@H](C)[C@H]4[C@]3(C)/C(O)=C3\C(=O)O[C@]4(CC(C=O)=C[C@H](OC(C)=O)[C@H]4/C=C\2C)C3=O)CC1(C)[N+](=O)[O-] (stereo not given in full) | >10 | >10
